Paper PMC8949375, “Design, Green Synthesis and Tailoring of Vitamin E TPGS Augmented Niosomal Nano-Carrier of Pyrazolopyrimidines as Potential Anti-Liver and Breast Cancer Agents with Accentuated Oral Bioavailability” (Pharmaceuticals, 2022)
Read-outs that look alike come from different tables or passages of the source.

Tests used:
CaCo-2 cell line = experiment: MTT cytotoxicity assay, CaCo-2; format: cell-based; settings: Homo sapiens, read-out: IC50 CaCo-2 Colon Cancer
Excerpt: (§1) • HepG2 [HEPG2] (ATCC® HB-8065™, Manassas, VA, USA) epithelial hepatocellular carcinoma was derived from the liver tissue of a person (a well-differentiated hepatocellular carcinoma). The human HCC cell line, HEPG-2, was obtained from the American Type Culture Collection and used to evaluate the effects of the following drugs. MCF-7(ATCC® HTB-22™, Manassas, VA, USA) breast cancer cells were derived from mammary gland or breast at a metastatic site. The human MCF-7 cell line, MCF-7, was obtained from the American Type Culture Collection and used to evaluate the effects of the following drugs. • Caco 2 [Caco2] (ATCC® HTB 37™, Manassas, VA, USA) epithelial colorectal adenocarcinoma was derived from the colon at a metastatic site. The human Caco-2 cell line, Caco-2, was obtained from the American Type Culture Collection and used to evaluate the effects of the following drugs. A549 (ATCC® CCL-185™, Manassas, VA, USA), epithelial-like lung carcinoma, was derived from lung tissue at a metastatic site. The human A549 cell line, A549, was obtained from the American Type Culture Collection and used to evaluate the effects of the following drugs.
(§2) HEPG2, A549, MCF-7 and Caco-2 cells were maintained in a monolayer culture in a T-25 flask at 5% CO2 and 37 °C in DMEM (Lonza, Verviers, Belgium) and supplemented with 10% (v/v) FBS (Sigma-Aldrich Co. LLC., Burlington, VT, USA). Penicillin/streptomycin (Gibco®, Grand Island, NY, USA) was applied at 100 units/mL and 100 µg/mL, respectively.
(§3) Growth inhibition was determined by classic MTT assay. In brief, HEPG2, A549, MCF-7 and Caco-2 cells were added to a cell culture MTT assay plate at a concentration of 5 × 10^3 cells/well in 1640 medium and cultured overnight. The different treatments were added on day 1 according to the calculated doses except on the control well and standard, then incubated for 24 h. Measurement was achieved using a microplate reader (Model 550, Bio-Rad, Hercules, CA, USA).

[1] = system: VEGF protein expression level in HepG2 cell line; experiment: VEGF ELISA in HepG2 cell culture supernatant; format: cell-based, human; design: concentration or dose not given beside the values; settings: compared to control
Experimental: (§4) Total protein was assayed using the method described by Bradford. The VEGF ELISA Assay Kit (VEGF) and ELISA Kit, (#VGF31-[…]) were purchased from (Eagle Biosciences CO., LTD, Amherst, NH, USA). The kit is a sandwich enzyme immunoassay for the in vitro quantitative determination of VEGF concentrations in cell culture supernates, serum and plasma according to the manufacturer's instructions.

HepG2 cell line = experiment: MTT cytotoxicity assay, HepG2; format: cell-based; settings: Homo sapiens
Excerpt: (§5) The human HCC cell line, HEPG-2, was obtained from the American Type Culture Collection and used to evaluate the effects of the following drugs. MCF-7(ATCC® HTB-22TM, Manassas, VA, USA) breast cancer cells were derived from mammary gland or breast at a metastatic site. […] The human Caco-2 cell line, Caco-2, was obtained from the American Type Culture Collection and used to evaluate the effects of the following drugs. […], Manassas, VA, USA), epithelial-like lung carcinoma, was derived from lung tissue at a metastatic site. The human A549 cell line, A549, was obtained from the American Type Culture Collection and used to evaluate the effects of the following drugs. […] LLC., Burlington, VT, USA). Penicillin/streptomycin (Gibco®, Grand Island, NY, USA) was applied at 100 units/mL and 100 μg/mL, respectively. Growth inhibition was determined by classic MTT assay. In brief, HEPG2, A549, MCF-7 and Caco-2 cells were added to a cell culture MTT assay plate at a concentration of 5 × 10^3 cells/well in 1640 medium and cultured overnight. The different treatments were added on day 1 according to the calculated doses except on the control well and standard, then incubated for 24 h.

MCF-7 cell line = experiment: MTT cytotoxicity assay, MCF-7; format: cell-based; settings: Homo sapiens, MCF7, read-out: IC50 MCF-7 Breast Cancer
Excerpt: as §5

[2] = system: VEGFR-2 protein expression level in HepG2 cell line; experiment: Human VEGF receptor-2 ELISA in HepG2; format: cell-based; design: concentration or dose not given beside the values; settings: compared to control
Experimental: (§6) Total protein was assayed using the method described by Bradford. The Human VEGF receptor-2 ELISA Kit (ab213476), (96 tests) was purchased from (abcam®, Waltham, MA, USA). The kit is a sandwich enzyme immunoassay for the in vitro quantitative measurement of human VEGFR-2 in tissue homogenates, cell lysates and other biological fluids according to the manufacturer’s instructions.

[3] = system: VEGFR-2 protein expression level in MCF-7 cell line; experiment: Human VEGF receptor-2 ELISA in MCF-7; format: cell-based; design: concentration or dose not given beside the values; settings: MCF-7, ELISA, compared to control
Experimental: as §6

A-549 cell line = experiment: MTT cytotoxicity assay, A-549; format: cell-based; settings: Homo sapiens, A549, read-out: IC50 A-549 Lung Carcinoma
Excerpt: as §1, §2, §3

[4] = system: VEGF protein expression level in MCF-7 cell line; experiment: VEGF ELISA in MCF-7 cell culture supernatant; format: cell-based, human; design: concentration or dose not given beside the values; settings: MCF-7, ELISA, compared to control
Experimental: as §4

[5] = system: HepG2, MCF-7, A-549 and CaCo-2 cell lines; experiment: MTT cytotoxicity assay, summary over all tested cell lines; format: cell-based, human; settings: for IC50: Homo sapiens, range over compounds and cell lines, read-out: IC50 values versus all tested cell lines (collective range); for cytotoxic effect on the four cancer cell lines: in words
Excerpt: as §1, §2, §3

[6] = system: VEGF gene expression level in HepG2 cell line; experiment: Real-time PCR of VEGF gene expression, HepG2; format: cell-based, human; settings: HepG2, 3 days of treatment, compared to control, in words
Experimental: RT-PCR was applied to evaluate the VEGF gene expression level. Briefly, total RNA was extracted, and the extracted total RNA concentration was determined using a NanoDrop 2000 spectrophotometer (Thermo Fisher, Waltham, MA, USA). To determine the relative expression levels, the 2^−ΔΔCT method was used. NCBI/Primer Blast was used to define the primer sequences. The experiments were performed in quadruplicate. The primer sequences of VEGF and β-actin genes are listed below: […]

[7] = read-out: IC50 HepG2 Livercarcinoma

SMILES	melting point [°C]	VEGF 24 h % Inhibition [1] [%]	VEGF 72 h % Inhibition [1] [%]	IC50 (HepG2 cell line; [7]) [µM]	IC50 (MCF-7 cell line) [µM]	VEGFR-2 24 h % Inhibition [2] [%]	VEGFR-2 72 h % Inhibition [2] [%]	VEGFR-2 24 h % Inhibition [3] [%]	VEGFR-2 72 h % Inhibition [3] [%]	VEGF 24 h % Inhibition [4] [%]	VEGF 72 h % Inhibition [4] [%]	cytotoxic effect on the four cancer cell lines [5]	also measured
Cc1ccc(N=Nc2c(N)n[nH]c2N)cc1 [Compound 1, 4-(p-tolyldiazenyl)-1H-pyrazole-3,5-diamine]	–	23	33.3	20	50	52.6	38.5	33.3	50	20	50	–	IC50 (CaCo-2 cell line): 18.2 µM; IC50 (A-549 cell line): 15.1 µM; IC50 [5]: 6 to 50 µM
Cc1ccc(N=Nc2c(N)nn3c2NC(=O)C(=NNc2ccc(S(=O)(=O)N=C(N)N)cc2)C3=O)cc1 [Compound 5, 4-(2-(2-Amino-5,7-Dioxo-3-(4-Tolyldiazenyl)-4,5-Dihydropyrazolo[1,5-a]Pyrimidin-6(7H)-Ylidene)Hydrazinyl)-N-(Diaminomethylene)Benzenesulfonamide]	278 to 280	–	–	–	–	–	–	–	–	–	–	no cytotoxic effects even at high doses	–
COc1ccc(-c2nc3c(N=Nc4ccc(C)cc4)c(N)nn3c(N)c2C#N)cc1 [Compound 6, 2,7-Diamino-5-(4-Methoxyphenyl)-3-(4-Tolyldiazenyl)Pyrazolo[1,5-a]Pyrimidine-6-Carbonitrile]	230 to 232	–	–	–	–	–	–	–	–	–	–	no cytotoxic effects even at high doses	–
CO[C@H]1C[C@@H]2CC[C@@H](C)[C@@](O)(O2)C(=O)C(=O)N2CCCC[C@H]2C(=O)O[C@H]([C@H](C)C[C@@H]2CC[C@@H](OCCO)[C@H](OC)C2)CC(=O)[C@H](C)/C=C(\C)[C@@H](O)[C@@H](OC)C(=O)[C@H](C)C[C@H](C)/C=C/C=C/C=C/1C [Everolimus, reference compound]	–	–	–	–	3	–	–	40	50	50	62.5	–	–
CNC(=O)c1cc(Oc2ccc(NC(=O)Nc3ccc(Cl)c(C(F)(F)F)c3)c(F)c2)ccn1 [Regorafenib, reference compound]	–	70.8	75.4	3	–	62	55.6	–	–	–	–	–	–
CNC(=O)c1cc(Oc2ccc(NC(=O)Nc3ccc(Cl)c(C(F)(F)F)c3)cc2)ccn1 [Sorafenib, reference compound]	–	–	–	6	–	–	–	–	–	–	–	–	–

Further lines, with some results ahead:

melting point [°C]	SMILES	VEGF 24 h % Inhibition [1] [%]	VEGF 72 h % Inhibition [1] [%]	IC50 (HepG2 cell line; [7]) [µM]	IC50 (MCF-7 cell line) [µM]	VEGFR-2 24 h % Inhibition [2] [%]	VEGFR-2 72 h % Inhibition [2] [%]	VEGFR-2 24 h % Inhibition [3] [%]	VEGFR-2 72 h % Inhibition [3] [%]	VEGF 24 h % Inhibition [4] [%]	VEGF 72 h % Inhibition [4] [%]	cytotoxic effect on the four cancer cell lines [5]	also measured
268 to 270	Cc1ccc(N=Nc2c(N)nn3c(N)c(N=Nc4ccc(S(=O)(=O)N=C(N)N)cc4)c(O)nc23)cc1 [Compound 2a, 4-((2,7-Diamino-5-hydroxy-3-(4-tolyldiazenyl)pyrazolo[1,5-a]pyrimidin-6-yl)diazenyl)-N-(diaminomethylene)benzenesulfonamide]	38.5	33.3	6.2	20	47.4	38.5	50	50	40	50	–	IC50 (CaCo-2 cell line): 12.5 µM; IC50 (HepG2 cell line; TPGS-coated vs uncoated niosomes vs pure compound, read-out: IC50 Hepg2 Liver Carcinoma): 6.5 µM; VEGF gene expression level [6]: great inhibition; IC50 (A-549 cell line): 10 µM; IC50 [5]: 6 to 50 µM
234 to 236	Cc1ccc(N=Nc2c(N)nn3c(N)c(N=Nc4cccc([N+](=O)[O-])c4)c(O)nc23)cc1 [Compound 2b, 2,7-diamino-6-((3-nitrophenyl)diazenyl)-3-(4-tolyldiazenyl)pyrazolo[1,5-a]pyrimidin-5-ol]	–	–	–	–	–	–	–	–	–	–	no cytotoxic effects even at high doses	–
250 to 252	Cc1ccc(N=Nc2c(N)nn3c(C)c(N=Nc4ccc(S(=O)(=O)N=C(N)N)cc4)c(C)nc23)cc1 [Compound 3a, 4-((2-Amino-5,7-dimethyl-3-(4-tolyldiazenyl)pyrazolo[1,5-a]pyrimidin-6-yl)diazenyl)-N-(diaminomethylene)benzenesulfonamide]	–	–	–	–	–	–	–	–	–	–	no cytotoxic effects even at high doses	–
256 to 258	Cc1ccc(N=Nc2c(N)nn3c(C)c(N=Nc4cccc([N+](=O)[O-])c4)c(C)nc23)cc1 [Compound 3b, 5,7-Dimethyl-6-((3-nitrophenyl)diazenyl)-3-(4-tolyldiazenyl)pyrazolo[1,5-a]pyrimidin-2-amine]	–	–	–	–	–	–	–	–	–	–	no cytotoxic effects even at high doses	–
272 to 274	Cc1ccc(N=Nc2c(N)nn3c(C)c(N=Nc4ccc(S(=O)(=O)N=C(N)N)cc4)c(=O)[nH]c23)cc1 [Compound 4a, 4-((2-Amino-7-methyl-5-oxo-3-(4-tolyldiazenyl)-4,5-dihydropyrazolo[1,5-a]pyrimidin-6-yl)diazenyl)-N-(diaminomethylene)benzenesulfonamide]	–	–	–	–	–	–	–	–	–	–	no cytotoxic effects even at high doses	–
228 to 230	Cc1ccc(N=Nc2c(N)nn3c(C)c(N=Nc4cccc([N+](=O)[O-])c4)c(=O)[nH]c23)cc1 [Compound 4b, 2-Amino-7-methyl-6-((3-nitrophenyl)diazenyl)-3-(4-tolyldiazenyl)pyrazolo[1,5-a]pyrimidin-5(4H)-one]	46	41.7	12.5	25	42	38.5	50	50	40	50	–	IC50 (CaCo-2 cell line): 15.4 µM; VEGF gene expression level [6]: great inhibition; IC50 (A-549 cell line): 14 µM; IC50 [5]: 6 to 50 µM
